Data as given in patent publication US20240398828A1, “HETERO-ATOM CONTAINING COMPOUNDS AND USES THEREOF” (Kumquat Biosciences Inc., priority 2021, published 2024).

Legend:
PTPN2 (i.e., TC-PTP) = target: T1, PTPN2 (i.e., TC-PTP) (Homo sapiens, UniProt P17706); assay: Phosphatase activity assay (DiFMUP substrate), PTPN2; type: biochemical; conditions: compounds binned ≤1 uM or >1 uM
T1 sequence (P17706 1-415): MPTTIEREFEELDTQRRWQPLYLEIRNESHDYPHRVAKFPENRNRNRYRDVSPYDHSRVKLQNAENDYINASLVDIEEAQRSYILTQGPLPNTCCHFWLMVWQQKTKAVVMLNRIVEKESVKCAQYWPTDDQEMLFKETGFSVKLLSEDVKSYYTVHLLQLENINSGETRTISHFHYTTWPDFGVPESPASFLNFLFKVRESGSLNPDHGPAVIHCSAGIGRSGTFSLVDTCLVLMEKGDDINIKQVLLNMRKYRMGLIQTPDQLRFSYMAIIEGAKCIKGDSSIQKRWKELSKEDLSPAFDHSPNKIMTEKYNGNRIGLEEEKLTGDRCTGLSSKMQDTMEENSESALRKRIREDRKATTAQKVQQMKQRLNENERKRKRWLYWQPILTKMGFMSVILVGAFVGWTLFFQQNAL
In short: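 Enzyme (e.g. PTPN2 0.025 ng/ul) mixed about 2 min with compound at 10 serial concentrations in 50 mM HEPES pH 7.5, 150 mM NaCl, 0.5 mM EDTA, 1 mM DTT, 0.001% Tween-20 at room temperature. DiFMUP added at each enzyme's Km (about 45 μM for PTPN2). DiFMU fluorescence (ex 360/em 450 nm) followed 15-30 min; IC50 from 4-parameter fit of rates.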

PTPN1 (i.e., PTP1B) = target: T2, PTPN1 (i.e., PTP1B) (Homo sapiens, UniProt P18031); assay: Phosphatase activity assay (DiFMUP substrate), PTP1B; type: biochemical; conditions: compounds binned ≤1 uM or >1 uM
T2 sequence (P18031 1-435): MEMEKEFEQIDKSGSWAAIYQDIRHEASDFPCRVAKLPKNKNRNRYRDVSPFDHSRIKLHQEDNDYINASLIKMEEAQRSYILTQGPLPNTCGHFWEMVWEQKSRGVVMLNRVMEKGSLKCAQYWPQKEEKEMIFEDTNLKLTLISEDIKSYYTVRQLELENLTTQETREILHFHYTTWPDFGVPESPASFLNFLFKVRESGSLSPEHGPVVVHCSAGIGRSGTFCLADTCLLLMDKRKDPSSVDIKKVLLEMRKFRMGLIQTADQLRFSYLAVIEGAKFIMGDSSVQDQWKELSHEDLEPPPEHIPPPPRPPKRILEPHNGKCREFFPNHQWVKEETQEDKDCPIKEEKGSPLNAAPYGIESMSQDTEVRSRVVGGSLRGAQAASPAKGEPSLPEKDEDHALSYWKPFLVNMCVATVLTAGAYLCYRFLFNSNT
In short: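 RT, HEPES pH 7.5 buffer with DTT/Tween-20. 10-point inhibitor series premixed ~2 min with enzyme (PTPN2 0.025 ng/ul). Start with DiFMUP at enzyme Km (~45 μM for PTPN2). Read DiFMU ex360/em450 continuously 15–30 min; initial rate vs concentration, 4-parameter fit → IC50.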

SMILES | IC50 (PTPN2 (i.e., TC-PTP)) | IC50 (PTPN1 (i.e., PTP1B))
O=C1CN(c2c(O)ccc(C3=CCN(C4CC4)CC3)c2F)S(=O)(=O)N1 [Compound 316, 5-(3-(1-cyclopropyl-1,2,3,6-tetrahydropyridin-4-yl)-2-fluoro-6-hydroxyphenyl)-1,2,5-thiadiazolidin-3-one 1,1-dioxide] | ≤ 1000 nM | ≤ 1000 nM
O=C1CN(c2c(O)ccc(-c3ccc(NS(=O)(=O)C4CC4)c(F)c3)c2F)S(=O)(=O)N1 [Compound 384, N-(3′-(1,1-dioxido-4-oxo-1,2,5-thiadiazolidin-2-yl)-2′,3-difluoro-4′-hydroxy-[1,1′-biphenyl]-4-yl)cyclopropanesulfonamide] | ≤ 1000 nM | ≤ 1000 nM
O=C1CN(c2c(O)ccc(-c3cnn(Cc4ccc(Cl)cc4)c3)c2F)S(=O)(=O)N1 [Compound 189, 5-(3-(1-(4-chlorobenzyl)-1H-pyrazol-4-yl)-2-fluoro-6-hydroxyphenyl)-1,2,5-thiadiazolidin-3-one 1,1-dioxide] | ≤ 1000 nM | ≤ 1000 nM
O=C1CN(c2c(O)ccc(-c3cnn(C4CCCCC4)c3)c2F)S(=O)(=O)N1 [Compound 160, 5-(3-(1-cyclohexyl-1H-pyrazol-4-yl)-2-fluoro-6-hydroxyphenyl)-1,2,5-thiadiazolidin-3-one 1,1-dioxide] | ≤ 1000 nM | ≤ 1000 nM
CC(C)n1cc(-c2ccc(O)c(N3CC(=O)NS3(=O)=O)c2F)c(F)n1 [Compound 467, 5-(2-fluoro-3-(3-fluoro-1-isopropyl-1H-pyrazol-4-yl)-6-hydroxyphenyl)-1,2,5-thiadiazolidin-3-one 1,1-dioxide] | ≤ 1000 nM | ≤ 1000 nM
Cc1cc(-c2ccc(O)c(N3CC(=O)NS3(=O)=O)c2F)[nH]n1 [Compound 183, 5-(2-fluoro-6-hydroxy-3-(3-methyl-1H-pyrazol-5-yl)phenyl)-1,2,5-thiadiazolidin-3-one 1,1-dioxide] | ≤ 1000 nM | ≤ 1000 nM
O=C1CN(c2c(O)ccc(-c3cc(C4CC4CO)n[nH]3)c2F)S(=O)(=O)N1 (stereo not drawn) [Compound 501, 5-(2-fluoro-6-hydroxy-3-(3-(2-(hydroxymethyl)cyclopropyl)-1H-pyrazol-5-yl)phenyl)-1,2,5-thiadiazolidin-3-one 1,1-dioxide] | ≤ 1000 nM | ≤ 1000 nM
O=C1CN(c2c(O)ccc(-c3cc(CC(F)F)n[nH]3)c2F)S(=O)(=O)N1 [Compound 524, 5-(3-(3-(2,2-difluoroethyl)-1H-pyrazol-5-yl)-2-fluoro-6-hydroxyphenyl)-1,2,5-thiadiazolidin-3-one 1,1-dioxide] | ≤ 1000 nM | ≤ 1000 nM
CC1(C)C=C(c2ccc(O)c(N3CC(=O)NS3(=O)=O)c2F)CN1 [Compound 519, 5-(3-(5,5-dimethyl-2,5-dihydro-1H-pyrrol-3-yl)-2-fluoro-6-hydroxyphenyl)-1,2,5-thiadiazolidin-3-one 1,1-dioxide] | > 1000 nM | > 1000 nM
CO[C@H]1CC[C@@H](n2cc(-c3ccc(O)c(N4CC(=O)NS4(=O)=O)c3F)cn2)CC1 [Compound 383, 5-(2-fluoro-6-hydroxy-3-(1-((1s,4s)-4-methoxycyclohexyl)-1H-pyrazol-4-yl)phenyl)-1,2,5-thiadiazolidin-3-one 1,1-dioxide] | ≤ 1000 nM | ≤ 1000 nM
O=C1CN(c2c(O)ccc(-c3ccc(NS(=O)(=O)C4CC4)nc3)c2F)S(=O)(=O)N1 [Compound 320, N-(5-(3-(1,1-dioxido-4-oxo-1,2,5-thiadiazolidin-2-yl)-2-fluoro-4-hydroxyphenyl)pyridin-2-yl)cyclopropanesulfonamide] | ≤ 1000 nM | ≤ 1000 nM
Cc1ccc(-c2ccc(O)c(N3CC(=O)NS3(=O)=O)c2F)s1 [Compound 128, 5-(2-fluoro-6-hydroxy-3-(5-methylthiophen-2-yl)phenyl)-1,2,5-thiadiazolidin-3-one 1,1-dioxide] | ≤ 1000 nM | ≤ 1000 nM
O=C1CN(c2c(O)ccc(-c3cnn(C4CCCC4)c3)c2F)S(=O)(=O)N1 [Compound 123, 5-(3-(1-cyclopentyl-1H-pyrazol-4-yl)-2-fluoro-6-hydroxyphenyl)-1,2,5-thiadiazolidin-3-one 1,1-dioxide] | ≤ 1000 nM | ≤ 1000 nM
N#CCCn1cc(-c2ccc(O)c(N3CC(=O)NS3(=O)=O)c2F)cn1 [Compound 204, 3-(4-(3-(1,1-dioxido-4-oxo-1,2,5-thiadiazolidin-2-yl)-2-fluoro-4-hydroxyphenyl)-1H-pyrazol-1-yl)propanenitrile] | ≤ 1000 nM | ≤ 1000 nM
COCCCc1cc(-c2ccc(O)c(N3CC(=O)NS3(=O)=O)c2F)[nH]n1 [Compound 243, 5-(2-fluoro-6-hydroxy-3-(3-(3-methoxypropyl)-1H-pyrazol-5-yl)phenyl)-1,2,5-thiadiazolidin-3-one 1,1-dioxide] | ≤ 1000 nM | ≤ 1000 nM
O=C1CN(c2c(O)ccc(-c3c(F)ccc4[nH]ncc34)c2F)S(=O)(=O)N1 [Compound 152, 5-(2-fluoro-3-(5-fluoro-1H-indazol-4-yl)-6-hydroxyphenyl)-1,2,5-thiadiazolidin-3-one 1,1-dioxide] | ≤ 1000 nM | ≤ 1000 nM
O=C1CN(c2c(O)ccc(-c3cc(C4CCCC4)n[nH]3)c2F)S(=O)(=O)N1 [Compound 266, 5-(3-(3-cyclopentyl-1H-pyrazol-5-yl)-2-fluoro-6-hydroxyphenyl)-1,2,5-thiadiazolidin-3-one 1,1-dioxide] | ≤ 1000 nM | ≤ 1000 nM
CCn1cc(-c2ccc(O)c(N3CC(=O)NS3(=O)=O)c2F)cn1 [Compound 486, 5-(3-(1-ethyl-1H-pyrazol-4-yl)-2-fluoro-6-hydroxyphenyl)-1,2,5-thiadiazolidin-3-one 1,1-dioxide] | ≤ 1000 nM | ≤ 1000 nM
O=C1CN(c2c(O)ccc(-c3cc(C4=CCOCC4)n[nH]3)c2F)S(=O)(=O)N1 [Compound 402, 5-(3-(3-(3,6-dihydro-2H-pyran-4-yl)-1H-pyrazol-5-yl)-2-fluoro-6-hydroxyphenyl)-1,2,5-thiadiazolidin-3-one 1,1-dioxide] | ≤ 1000 nM | ≤ 1000 nM
O=C1CN(c2c(O)ccc(-c3cc4ccccc4[nH]3)c2F)S(=O)(=O)N1 [Compound 258, 5-(2-fluoro-6-hydroxy-3-(1H-indol-2-yl)phenyl)-1,2,5-thiadiazolidin-3-one 1,1-dioxide] | ≤ 1000 nM | ≤ 1000 nM
CCC1(c2cc(-c3ccc(O)c(N4CC(=O)NS4(=O)=O)c3F)[nH]n2)CC1 [Compound 369, 5-(3-(3-(1-ethylcyclopropyl)-1H-pyrazol-5-yl)-2-fluoro-6-hydroxyphenyl)-1,2,5-thiadiazolidin-3-one 1,1-dioxide] | ≤ 1000 nM | ≤ 1000 nM
C=CCCC1C=C(c2ccc(O)c(N3CC(=O)NS3(=O)=O)c2F)CN1 (stereo not drawn) [Compound 471, 5-(3-(5-(but-3-en-1-yl)-2,5-dihydro-1H-pyrrol-3-yl)-2-fluoro-6-hydroxyphenyl)-1,2,5-thiadiazolidin-3-one 1,1-dioxide] | ≤ 1000 nM | ≤ 1000 nM
Cn1ncc(-c2ccc(O)c(N3CC(=O)NS3(=O)=O)c2F)n1 [Compound 178, 5-(2-fluoro-6-hydroxy-3-(2-methyl-2H-1,2,3-triazol-4-yl)phenyl)-1,2,5-thiadiazolidin-3-one 1,1-dioxide] | ≤ 1000 nM | ≤ 1000 nM
O=C1CN(c2c(O)ccc(-c3cn(-c4ccc(C(F)(F)F)cc4)cn3)c2F)S(=O)(=O)N1 [Compound 318, 5-(2-fluoro-6-hydroxy-3-(1-(4-(trifluoromethyl)phenyl)-1H-imidazol-4-yl)phenyl)-1,2,5-thiadiazolidin-3-one 1,1-dioxide] | ≤ 1000 nM | ≤ 1000 nM
O=C1CN(c2c(O)ccc(C3=CC(COC(F)F)NC3)c2F)S(=O)(=O)N1 (stereo not drawn) [Compound 480, 5-(3-(5-((difluoromethoxy)methyl)-2,5-dihydro-1H-pyrrol-3-yl)-2-fluoro-6-hydroxyphenyl)-1,2,5-thiadiazolidin-3-one 1,1-dioxide] | ≤ 1000 nM | ≤ 1000 nM
O=C1CN(c2c(O)ccc(C3=CCN(S(=O)(=O)c4ccccc4)C3)c2F)S(=O)(=O)N1 [Compound 404, 5-(2-fluoro-6-hydroxy-3-(1-(phenylsulfonyl)-2,5-dihydro-1H-pyrrol-3-yl)phenyl)-1,2,5-thiadiazolidin-3-one 1,1-dioxide] | ≤ 1000 nM | ≤ 1000 nM
O=C1CN(c2c(O)ccc(-c3cnn(C4CCC(F)(F)CC4)c3)c2F)S(=O)(=O)N1 [Compound 446, 5-(3-(1-(4,4-difluorocyclohexyl)-1H-pyrazol-4-yl)-2-fluoro-6-hydroxyphenyl)-1,2,5-thiadiazolidin-3-one 1,1-dioxide] | ≤ 1000 nM | ≤ 1000 nM
